Assay results: patent US9204640B2, “2-acyloxy-pyrrolin-4-ones” (BAYER INTELLECTUAL PROPERTY GMBH, priority 2011, dated 2015)

Tests used:
Myzus persicae = assay: Myzus test (MYZUPE spray treatment); assay type: in vivo; conditions: application rate 500 g/ha, after 5 days, Chinese cabbage leaf discs
How it was run: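 Chinese cabbage leaf discs carrying all stages of green peach aphid sprayed with compound diluted in emulsifier-containing water to the desired concentration. Mortality scored as % after 5 days, where 100% means all aphids dead and 0% none.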

Tetranychus urticae = assay: Tetranychus test (TETRUR spray treatment; OP-resistant in Example 10); assay type: in vivo; conditions: application rate 100 g/ha, after 5 days, bean leaf discs
How it was run: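 Bean leaf discs (Phaseolus vulgaris) infested with all stages of Tetranychus urticae sprayed with compound diluted in emulsifier-containing water. In the standard test, % kill scored after 5 days. The OP-resistant strain test uses the same method with scoring after a set period; 100% = all mites dead, 0% = none.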

Compound: CCOC(=O)OC1=C(c2c(C)cc(I)cc2CC)C(=O)C2(CCC(OC)CC2)N1 (mixture of isomers) [I-b-2]
- effect in % (aphids killed) (Myzus persicae): 100%
- effect in % (spider mites killed) (Tetranychus urticae): 80%
